According to ChEMBL document CHEMBL3407355, “Understanding the importance of glycosylated threonine and stereospecific action of Drosocin, a Proline rich antimicrobial peptide” (Eur J Med Chem, 2015):
In brackets after ≈: the same amount, converted by molar mass. Activity calls are given as the source filed them. The calls are words filed in the database; no cut-off is given here. Where a SMILES comes first, the peptide text is derived from it. The star is where a group is joined. αGalNAc = CC(=O)N[C@@H]1[C@@H](O)[C@@H](O)[C@@H](CO)O[C@@H]1*; X1 = CC(=O)N[C@H]1[C@H](O)[C@H](O)[C@H](CO)O[C@H]1*

Assays:
Salmonella typhi = experiment: Antimicrobial activity against Salmonella typhi Vi+ by broth microdilution assay; format: functional, Salmonella enterica subsp. enterica serovar Typhi; settings: Salmonella enterica
Salmonella typhimurium = experiment: Antimicrobial activity against Salmonella typhimurium ATCC 14028 by broth microdilution assay; format: functional, Salmonella enterica subsp. enterica serovar Typhimurium; settings: Salmonella enterica
Escherichia coli [1] = experiment: Antimicrobial activity against Escherichia coli ATCC 25922 by broth microdilution assay; format: functional
Escherichia coli [2] = experiment: Drug uptake in Escherichia coli ATCC 25922 assessed as cellular internalization after 30 mins by FACS analysis; format: ADME, organism-based; settings: in vivo, 0.5 h
Escherichia coli [3] = experiment: Binding affinity to Escherichia coli His-tagged recombinant […] binding domain of DnaK assessed as rate constant by […] Plasmon resonance assay
Escherichia coli [4] = experiment: Antimicrobial activity against Escherichia coli ATCC 35218 by broth microdilution assay; format: functional
Escherichia coli [5] = experiment: Antimicrobial activity against Escherichia coli ATCC 11775 by broth microdilution assay; format: functional
[6] = Binding affinity to Escherichia coli His-tagged recombinant […] binding domain of DnaK by […] Plasmon resonance assay
Escherichia coli [7] = experiment: Inhibition of protein biosynthesis in Escherichia coli ATCC 25922 assessed as incorporation of [35S]methionine into protein at 10 times of MIC concentration by in-vivo translation assay; format: functional, organism-based
Escherichia coli [8] = experiment: In-vitro inhibition of luciferase reporter gene translation in Escherichia coli S30 extract at 200 ng by transcription/translation assay; format: functional
Escherichia coli [9] = experiment: Inhibition of RNA biosynthesis in Escherichia coli ATCC 25922 assessed as incorporation of [3H]uridine into RNA at 10 times of MIC concentration by in-vivo transcription assay; format: functional, organism-based
Escherichia coli [10] = experiment: Inhibition of protein biosynthesis in Escherichia coli ATCC 25922 assessed as incorporation of [35S]methionine into protein at 2.5 ug/300 ul by in-vivo translation assay; format: functional, organism-based

Row | Compound | MIC (Salmonella typhi) [µM] | MIC (Salmonella typhimurium) [µM] | MIC (Escherichia coli [1]) [µM] | Drug uptake (Escherichia coli [2]) [%] | Ka (Escherichia coli [3]) [×10⁴ /M/s] | Kdiss (Escherichia coli [3]) [s⁻¹] | MIC (Escherichia coli [4]) [µM] | MIC (Escherichia coli [5]) [µM] | Kd [6] [µM] | inhibition (Escherichia coli [7]) | inhibition (Escherichia coli [8]) | inhibition (Escherichia coli [9]) | inhibition (Escherichia coli [10])
1 | CC[C@H](C)[C@H](NC(=O)[C@@H]1CCCN1C(=O)[C@H](CCCNC(=N)N)NC(=O)[C@@H]1CCCN1C(=O)[C@H](Cc1cnc[nH]1)NC(=O)[C@H](CO)NC(=O)[C@@H](NC(=O)[C@@H]1CCCN1C(=O)[C@H](CCCNC(=N)N)NC(=O)[C@@H]1CCCN1C(=O)[C@H](CO)NC(=O)[C@H](Cc1ccc(O)cc1)NC(=O)[C@@H]1CCCN1C(=O)[C@H](CCCNC(=N)N)NC(=O)[C@@H]1CCCN1C(=O)[C@H](CCCCN)NC(=O)CN)[C@@H](C)O[C@@H]1O[C@@H](CO)[C@@H](O)[C@@H](O)[C@@H]1NC(C)=O)C(=O)N[C@@H](CCCNC(=N)N)C(=O)N[C@H](C(=O)O)C(C)C (H-GKPRPYSPRPT(X1)SHPRPIRV-OH) | 1.3 (≈ 3.12 µg/mL) | 1.8 (≈ 4.32 µg/mL) | 0.3 (≈ 0.721 µg/mL) | 20 | 1.94 | 0.0297 | 0.2 (≈ 0.48 µg/mL) | 0.5 (≈ 1.2 µg/mL) | 1.53 | – | – | – | –
2 | H-GKPRPYSPRPSSHPRPIRV-OH | 3 | 2 | 0.4 | – | – | – | 0.2 | 0.6 | – | – | – | – | –
3 | CC[C@@H](C)[C@@H](NC(=O)[C@H]1CCCN1C(=O)[C@@H](CCCNC(=N)N)NC(=O)[C@H]1CCCN1C(=O)[C@@H](Cc1cnc[nH]1)NC(=O)[C@H]1CCCN1C(=O)[C@H]1CCCN1C(=O)[C@H]1CCCN1C(=O)[C@@H](CCCNC(=N)N)NC(=O)[C@H]1CCCN1C(=O)[C@H]1CCCN1C(=O)[C@@H](Cc1ccc(O)cc1)NC(=O)[C@H]1CCCN1C(=O)[C@@H](CCCNC(=N)N)NC(=O)[C@H]1CCCN1C(=O)[C@@H](CCCCN)NC(=O)CN)C(=O)N[C@H](CCCNC(=N)N)C(=O)N[C@@H](C(=O)O)C(C)C | > 200 | > 200 | > 200 | 2 | 9.34 | 0.0137 | > 200 | > 200 | 1.47 | inactive | Active | inactive | –
4 | H-GKPRPYSPRPTSHPRPIRV-OH [DROSOCIN] | 3 | 2 | 0.5 | – | – | – | 0.4 | 0.7 | – | – | – | – | –
5 | CC[C@H](C)[C@H](NC(=O)[C@@H]1CCCN1C(=O)[C@H](CCCNC(=N)N)NC(=O)[C@@H]1CCCN1C(=O)[C@H](Cc1cnc[nH]1)NC(=O)[C@@H]1CCCN1C(=O)[C@@H]1CCCN1C(=O)[C@@H]1CCCN1C(=O)[C@H](CCCNC(=N)N)NC(=O)[C@@H]1CCCN1C(=O)[C@@H]1CCCN1C(=O)[C@H](Cc1ccc(O)cc1)NC(=O)[C@@H]1CCCN1C(=O)[C@H](CCCNC(=N)N)NC(=O)[C@@H]1CCCN1C(=O)[C@H](CCCCN)NC(=O)CN)C(=O)N[C@@H](CCCNC(=N)N)C(=O)N[C@H](C(=O)O)C(C)C | 0.6 (≈ 1.33 µg/mL) | 0.6 (≈ 1.33 µg/mL) | 0.3 (≈ 0.664 µg/mL) | – | 2.45 | 0.0366 | 0.2 (≈ 0.443 µg/mL) | 0.3 (≈ 0.664 µg/mL) | 1.49 | Active | Active | – | –
6 | CN(C)[C@@H]1C(O)=C(C(N)=O)C(=O)[C@@]2(O)C(O)=C3C(=O)c4c(O)cccc4[C@@](C)(O)[C@H]3C[C@@H]12 | – | – | – | – | – | – | – | – | – | – | – | – | Active
7 | CC[C@H](C)[C@H](NC(=O)[C@@H]1CCCN1C(=O)[C@H](CCCNC(=N)N)NC(=O)[C@@H]1CCCN1C(=O)[C@H](Cc1cnc[nH]1)NC(=O)[C@H](CO)NC(=O)[C@H](CO[C@H]1O[C@H](CO)[C@H](O)[C@H](O)[C@H]1NC(C)=O)NC(=O)[C@@H]1CCCN1C(=O)[C@H](CCCNC(=N)N)NC(=O)[C@@H]1CCCN1C(=O)[C@H](CO)NC(=O)[C@H](Cc1ccc(O)cc1)NC(=O)[C@@H]1CCCN1C(=O)[C@H](CCCNC(=N)N)NC(=O)[C@@H]1CCCN1C(=O)[C@H](CCCCN)NC(=O)CN)C(=O)N[C@@H](CCCNC(=N)N)C(=O)N[C@H](C(=O)O)C(C)C (H-GKPRPYSPRPS(αGalNAc)SHPRPIRV-OH) | 5 (≈ 11.9 µg/mL) | 6 (≈ 14.3 µg/mL) | 1.1 (≈ 2.63 µg/mL) | – | – | – | 0.5 (≈ 1.19 µg/mL) | 1.6 (≈ 3.82 µg/mL) | – | – | – | – | –
8 | CC[C@H](C)[C@H](NC(=O)[C@@H]1CCCN1C(=O)[C@H](CCCNC(=N)N)NC(=O)[C@@H]1CCCN1C(=O)[C@H](Cc1cnc[nH]1)NC(=O)[C@H](CO)NC(=O)[C@@H](NC(=O)[C@@H]1CCCN1C(=O)[C@H](CCCNC(=N)N)NC(=O)[C@@H]1CCCN1C(=O)[C@H](CO)NC(=O)[C@H](Cc1ccc(O)cc1)NC(=O)[C@@H]1CCCN1C(=O)[C@H](CCCNC(=N)N)NC(=O)[C@@H]1CCCN1C(=O)[C@H](CCCCN)NC(=O)CN)[C@@H](C)O[C@H]1O[C@H](CO)[C@H](O)[C@H](O)[C@H]1NC(C)=O)C(=O)N[C@@H](CCCNC(=N)N)C(=O)N[C@H](C(=O)O)C(C)C (H-GKPRPYSPRPT(αGalNAc)SHPRPIRV-OH) | 0.3 (≈ 0.721 µg/mL) | 0.3 (≈ 0.721 µg/mL) | 0.2 (≈ 0.48 µg/mL) | 16 | 2.04 | 0.0366 | 0.2 (≈ 0.48 µg/mL) | 0.3 (≈ 0.721 µg/mL) | 1.79 | – | – | – | –
